Structures can show the parent of a compound that is named as a salt.
Columns and labels:
L-1210 leukemia = assay: L-1210 Life Prolongation Assay; assay type: in vivo, mice
Text: L-1210 Life Prolongation Assay^a
^a Intraperitoneal transplants.
^b Q04DX02 = ip injection on days 1 and 5.
Q04HX02 = iv drug dosing on hours 1 and 5.
^c % TC = (median survival time of treated/control animals) ×
^d log of initial tumor cell population minus log of tumor cell
population at the end of treatment. […]

[1] = Toxicity by weight loss in test animals (Protocol 4; toxic = weight loss of ≥4.0 grams); toxic dose; assay type: in vivo, mice
Text: By "non-toxic", as used herein with reference to the ester compounds of the present invention, is meant a compound which is not toxic according to Protocal 4, section 4.301(b)(3) where toxicity is defined as a weight loss of ≥4.0 grams as reported in R. I. Geran, N. H. Greenberg, M. M. MacDonald, A. M. Schumacher and B. J. Abbott, Cancer Chemotherapy Reports, Part 3, Vol. 3, No. 2, September 1972.

[2] = physiological pH, 7.2; Burke et al. 1993; cited from earlier work
P388 leukemia = details: Wall 1983; cited from earlier work
[3] = background statement; cited from earlier work
leukemia and tumor = details: Wall 1969; cited from earlier work
topoisomerase I = biological target: T1, topoisomerase I (Bos taurus, UniProt F1MN93); assay: Cleavable complex assay (topoisomerase I inhibition); assay type: biochemical; details: S.E. in own column, read-out: IC50, minimum drug concentration that inhibited the cleavable complex formation by 50%
T1 sequence (F1MN93 1-767): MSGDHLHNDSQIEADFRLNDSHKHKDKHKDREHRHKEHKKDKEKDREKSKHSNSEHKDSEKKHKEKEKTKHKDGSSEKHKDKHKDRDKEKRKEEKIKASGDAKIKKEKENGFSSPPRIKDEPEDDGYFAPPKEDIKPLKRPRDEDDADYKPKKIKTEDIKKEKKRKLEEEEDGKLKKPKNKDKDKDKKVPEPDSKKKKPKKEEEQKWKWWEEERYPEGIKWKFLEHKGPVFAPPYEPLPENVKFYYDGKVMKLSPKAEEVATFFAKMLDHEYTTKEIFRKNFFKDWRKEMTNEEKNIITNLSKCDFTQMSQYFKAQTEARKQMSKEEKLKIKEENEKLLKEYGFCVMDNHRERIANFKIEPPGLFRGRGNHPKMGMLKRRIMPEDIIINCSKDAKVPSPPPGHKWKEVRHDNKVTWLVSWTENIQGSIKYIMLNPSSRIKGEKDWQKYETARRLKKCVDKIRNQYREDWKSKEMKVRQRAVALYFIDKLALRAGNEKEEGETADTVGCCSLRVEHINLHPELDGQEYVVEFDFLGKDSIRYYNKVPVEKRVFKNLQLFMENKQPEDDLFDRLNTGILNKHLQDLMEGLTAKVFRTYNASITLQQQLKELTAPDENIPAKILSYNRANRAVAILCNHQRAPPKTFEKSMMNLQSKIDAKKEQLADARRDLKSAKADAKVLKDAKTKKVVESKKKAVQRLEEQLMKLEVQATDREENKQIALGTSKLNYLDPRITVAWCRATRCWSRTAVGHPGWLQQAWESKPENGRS
Text: This relaxation is brought about by breakage of one of the DNA strands in the formation of a covalent topoisomerase I-DNA complex.

[4] = at highest active dose, ip, Q04DX02 (days 1 and 5)
[5] = ip, Q04DX02 (ip injection on days 1 and 5), intraperitoneal transplants
[6] = iv, Q04HX02 (iv drug dosing on hours 1 and 5), intraperitoneal transplants
[7] = at highest active dose, iv, Q04HX02 (hours 1 and 5)

For CCC1(O)C(=O)OCc2c1cc1n(c2=O)Cc2cc3cc4c(cc3nc2-1)OCO4 (racemic) [10,11-(methylenedioxy)-(20RS)-CPT, 10,11-methylenedioxy-20(RS)-camptothecin, reference compound], the “% T/C = (median survival time of treated/control animals) × 100” value (L-1210 leukemia; [4]) was 325%, the “KE, log of initial tumor cell population minus log of tumor cell population at the end of treatment” value (L-1210 leukemia; ip, Q04DX02 (days 1 and 5)) was 5.97 and the active dose range (L-1210 leukemia; ip, Q04DX02 (days 1 and 5)) was 2 to 4 mg/kg. For the same compound, the cures (L-1210 leukemia; ip, Q04DX02 (days 1 and 5)) was 2/6, the highest active dose (L-1210 leukemia; [5]) was 2 mg/kg and the toxic dose ([1]; ip, Q04DX02 (days 1 and 5)) was 8.0 mg/kg.

In the case of CC[C@@]1(O)C(=O)OCc2c1cc1n(c2=O)Cc2cc3ccccc3nc2-1 [camptothecin, Camptothecin], the lactone ring opening [2] is listed as “opens to a physiologically inactive open form”, the “activity in the P388 leukemia assay” value (P388 leukemia) is listed as “High activity” and the water solubility [3] is listed as “water insoluble”.

With CCC1(O)C(=O)OCc2c1cc1n(c2=O)Cc2cc3cc(N)ccc3nc2-1 (racemic) [10-amino-(20RS)-CPT, reference compound] the “% T/C = (median survival time of treated/control animals) × 100” value (L-1210 leukemia; ip) was 365%, the “KE, log of initial tumor cell population minus log of tumor cell population at the end of treatment” value (L-1210 leukemia; ip, Q04DX02 (days 1 and 5)) was 5.97 and the active dose range (L-1210 leukemia; ip, Q04DX02 (days 1 and 5)) was 1.35 to 3.74 mg/kg. The cures (L-1210 leukemia; ip, Q04DX02 (days 1 and 5)) was 3/6, the highest active dose (L-1210 leukemia; [5]) was 3.75 mg/kg and the toxic dose ([1]; ip, Q04DX02 (days 1 and 5)) was 6.25 mg/kg.

In the case of CCC1C(=O)OCc2c1cc1n(c2=O)Cc2cc3ccccc3nc2-1 (centres unmarked) [20-desoxy-CPT], the “antileukemia and antitumor activity” value (leukemia and tumor) is listed as “inactive”.

For CC[C@@]1(O)C(=O)OCc2c1cc1n(c2=O)Cc2cc3c(N)cccc3nc2-1 [9-amino-(20S)-CPT, reference compound], the “KE, log of initial tumor cell population minus log of tumor cell population at the end of treatment” value (L-1210 leukemia; ip, Q04DX02 (days 1 and 5)) was 4.8, the active dose range (L-1210 leukemia; ip, Q04DX02 (days 1 and 5)) was 5.3 to 12 mg/kg and the cures (L-1210 leukemia; ip, Q04DX02 (days 1 and 5)) was 1/6. The highest active dose (L-1210 leukemia; [5]) was 12 mg/kg, the “% T/C = (median survival time of treated/control animals) × 100” value (L-1210 leukemia; mouse, in vivo, ip) was 250% and the toxic dose ([1]; ip, Q04DX02 (days 1 and 5)) was 10 mg/kg.

In the case of CCC1(OC(=O)CN)C(=O)OCc2c1cc1n(c2=O)Cc2cc3cc4c(cc3nc2-1)OCO4 (racemic) [10,11-MDO-20-O-glycinyl-(20RS)-CPT·HCl], the “% T/C = (median survival time of treated/control animals) × 100” value (L-1210 leukemia; iv) is reported as 236%, the “KE, log of initial tumor cell population minus log of tumor cell population at the end of treatment” value (L-1210 leukemia; iv, Q04HX02 (hours 1 and 5)) is reported as 5.97 and the active dose range (L-1210 leukemia; iv, Q04HX02 (hours 1 and 5)) is reported as 1.25 to 20 mg/kg. For the same compound, the cures (L-1210 leukemia; iv, Q04HX02 (hours 1 and 5)) was 3/6, the highest active dose (L-1210 leukemia; [6]) was 10 mg/kg and the toxicity in words ([1]; administered at 20 mg/kg) was “non-toxic”. The “greater amount of the ester that can be administered than the parent compound” value ([1]; ester vs parent 10,11-methylenedioxy-20(RS)-camptothecin) was 10 fold, the “toxic dose (not toxic at dose)” value ([1]; iv, Q04HX02 (hours 1 and 5)) was “NT at 20” and the IC50 (topoisomerase I) was 430 nM.

For CCC1(OC(=O)CN)C(=O)OCc2c1cc1n(c2=O)Cc2cc3cc(N)ccc3nc2-1 (racemic) [10-amino-20-glycinyl-(20RS)-CPT.HCl, 10-amino-20-O-glycinyl-(20RS)-CPT·HCl], the “% T/C = (median survival time of treated/control animals) × 100” value (L-1210 leukemia; [7]) was 225%, the “KE, log of initial tumor cell population minus log of tumor cell population at the end of treatment” value (L-1210 leukemia; iv, Q04HX02 (hours 1 and 5)) was > 5.97 and the active dose range (L-1210 leukemia; iv, Q04HX02 (hours 1 and 5)) was 1.25 to 20 mg/kg. The cures (L-1210 leukemia; iv, Q04HX02 (hours 1 and 5)) was 0, the highest active dose (L-1210 leukemia; [6]) was 20 mg/kg and the “toxic dose (not toxic at dose)” value ([1]; iv, Q04HX02 (hours 1 and 5)) was “NT at 20”.

In the case of CCC1(OC(=O)CN)C(=O)OCc2c1cc1n(c2=O)Cc2cc3c(N)cccc3nc2-1 (racemic) [9-amino-20-glycinyl-(20RS)-CPT.HCl, 9-amino-20-O-glycinyl-(20RS)-CPT·HCl], the “% T/C = (median survival time of treated/control animals) × 100” value (L-1210 leukemia; [4]) is reported as 132%, the “% T/C = (median survival time of treated/control animals) × 100” value (L-1210 leukemia; [7]) is reported as 168% and the highest active dose (L-1210 leukemia; mouse, in vivo) is reported as 5 mg/kg. The “KE, log of initial tumor cell population minus log of tumor cell population at the end of treatment” value (L-1210 leukemia; mouse, in vivo, ip) was -1.00, the active dose range (L-1210 leukemia; mouse, in vivo, ip) was 10 mg/kg and the cures (L-1210 leukemia; mouse, in vivo, ip) was 0. For the same compound, the highest active dose (L-1210 leukemia; mouse, in vivo, ip) was 10 mg/kg, the “KE, log of initial tumor cell population minus log of tumor cell population at the end of treatment” value (L-1210 leukemia; mouse, in vivo, iv) was 1.67 and the active dose range (L-1210 leukemia; mouse, in vivo, iv) was 2.5 to 5.0 mg/kg. The cures (L-1210 leukemia; mouse, in vivo, iv) was 1/6, the “toxic dose (not toxic at dose)” value ([1]; ip, Q04DX02 (days 1 and 5)) was “NT^e at 10” and the “toxic dose (not toxic at dose)” value ([1]; iv, Q04HX02 (hours 1 and 5)) was “NT at 5”.

In the case of CCC1(OC(C)=O)C(=O)OCc2c1cc1n(c2=O)Cc2cc3ccccc3nc2-1 (stereo not drawn) [CPT-20α-acetate], the “antileukemia and antitumor activity” value (leukemia and tumor) is given as “inactive”.

From patent US5646159A (priority 1994, dated 1997)
